This is an account of results in patent US20020086895A1, “Methods of treating fungal infections” (priority 1985, published 2002).

For one assay, the system named is C. albicans. Nature of the assay: Antifungal screen of matrix-synthesis aurones in 96-well plates, C. albicans. Type of assay: cell-based, Candida albicans. The settings on record: @12.5 μg/ml. How it is done: (§1) Thirty-eight 96-well plates were prepared with the above samples and tested against both C. albicans and A. fumigatus at either 8 μg/ml or 12.5 μg/ml. Plates with high activity were retested at the same concentration to confirm activity.
(§2) These compounds have formulae where W′ is OH, V is 3′,4′-(1,1-dimethylpropyloxy) to form a dihydropyran series, and X is selected from 3,4-dimethoxyphenyl, 4-t-butylphenyl, 2(prop-2-enyloxy)phenyl, 3-phenoxyphenyl, 3-ethoxy-4-hydroxyphenyl, 6-cyclohexenyl, and norborn-4-yl.

In a further assay the test system is A. fumigatus. Nature of the assay: Antifungal screen of matrix-synthesis aurones in 96-well plates, A. fumigatus. The format is cell-based, Aspergillus fumigatus. Conditions: @12.5 μg/ml. How it is done:
as §1, §2

The subject of assay [1] is Staphylococcus aureus KLE820. Description: Activity of selected aurones against Staphylococcus aureus KLE820. The format is cell-based. Conditions: read-out: % Inhibition of growth at 10 ug/ml. From the text: Compounds described herein also have activity against bacteria.
Assay [2] concerns nine isolates (Aspergillus and Candida). Description: Standard controls of the antifungal assays of Example 12. Type of assay: cell-based. How it is done:
Test compounds were tested against nine isolates in an eight-point dose response assay ranging from 50 μg/ml to 0.39 μg/ml. Aspergillus MIC's (minimum inhibitory concentrations) were scored visually after 48 and 72 hours at 37° C. […] Amphotericin B (2.5 μg/ml) and 5-flucytosine (2.0 μg ml) were standard controls for each antifungal assay. […] The results are shown below in Table 4, MIC values in μg/ml after 72 hours. HFF toxicity was analyzed after a 24 hour incubation at 37° C. (5% CO2). MTS/PMS was added, and the sample absorbance was read at 450 nm.

Assay [3] relates to Candida albicans (strain ATCC #90028). Description: Inhibition of Candida spp. culture (XTT). Type of assay: cell-based. Conditions: for C. albicans minimum inhibitory concentration (MIC) compared with reported ranges: assay validation. How it is done: (§3) Candida albicans (strain ATCC #90028), Candida krusei (strain ATCC #90030), and Torulopsis (Candida) glabrata (strain ATCC #6258) were subcultured from cryopreserved stocks onto sabourand dextrose agar plates. Blastoconidia were suspended into RPMI-MOPS (media) and inoculated (500 cfu/well) into 96-well plates containing test compounds in a final volume of 100 μL/well. After 22 hours at 35° C., 25 μL of XTT (2,3-bis(2-methoxy-4-nitro-5-sulfophenyl)-5-[(phenylamino)carbonyl]-2H-tetrazolium hydroxide), (100 μg/mL) with PMS (phenazine methyl sulfate, 5 μM) were added to each well, followed by 2 hours of shaking. Growth was assessed spectrophotometrically by measuring the appearance of soluble formazan stain at 450 nm using an Emax microplate reader.

In assay [4] the test system is Torulopsis (Candida) glabrata (strain ATCC #6258). Description: Inhibition of Candida spp. culture (XTT). Type of assay: cell-based. Conditions: T. (C.) glabrata, 22 hours at 35° C., read-out: antifungal MIC. As for the experimental part:
as §3

Assay [5] deals with Candida krusei (strain ATCC #90030). Nature of the assay: Inhibition of Candida spp. culture (XTT). Conditions: Pichia kudriavzevii, ATCC90030, C. krusei, 22 hours at 35° C., read-out: antifungal MIC. The format is cell-based. As for the experimental part:
as §3
In general terms: Formazan colour is commonly taken as a measure of viable cells.

For assay [6], the system named is chitin synthase II (CS II). Nature of the assay: Inhibition of chitin synthase, CS II only. The format is biochemical, C. albicans. Conditions: 10 μM Nikkomycin Z, pH 7.5, 5 mM MgCl2. How it is done:
Plasma membrane was purified from C. albicans (ATCC #90028) according to Orlean, J. Biol. Chem. 262:5732-5-1987. To minimize proteolysis during plasma membrane preparation, 1% fetal calf serum was incorporated into the homogenization buffer. Plasma membrane was activated by trypsin (125 μg/mg protein) in the presence of 1.5 mM UDP-GLcNAc(c) at 25° C. for 5 minutes. The reaction was stopped by the addition of soybean trypsin inhibitor. The activated membranes (0.125 mg membrane protein/mL) were […], 40 mM GlcNAc, 4 mM ^14C-UDP-GlcNAc (specific: 0.25 mCi/mmol) (New England Nuclear Boston, Mass.) and plant extract (100 μg/mL). The incubation was carried out at 37° C. for 1 hour and terminated with the addition of trichloroacetic acid (10%). The reaction mixture was transferred to a pre-wetted glass fiber filter. The filter was washed with 4×200 μL of a 7:3 solution of 95% EtOH and 1 M acetic acid. The filter was dried under a heat lamp and counted in a Microbeta counter (Wallac, Gaithersburg, Md.) after the addition of 25 μL OPTIPHASE SUPERMIX™ (Wallac) scintillation fluid. Nikkomycin Z and Polyoxin D were used as positive controls (Calbiochem, San Diego, Calif.). Vehicle control was carried out with the same amount of DMSO (2%).
The SOP assay described above was modified to pH 7.5 and 5 mM MgCl2 (instead of CoCl2). […]

Assay [7] deals with C. albicans UTR-14, fluconazole-resistant clinical isolate. Description: Fluconazole-resistant candidiasis in mice. The settings on record: 40 mg per kg body weight p.o. (twice daily). Type of assay: in vivo.
Assay [8] has as its system Candida albicans strain #64, sensitive to fluconazole. Nature of the assay: Fluconazole-sensitive candidiasis in mice. Type of assay: in vivo. Conditions: 40 mg per kg body weight, twice a day. As for the experimental part: Immunocompetent mice (ICR, Sprague-Dawley, Indianapolis, Ind.) were infected with a pathogenic strain (strain #64) of Candida albicans which is sensitive to fluconazole. […] […] […] In addition, the organ fungal load (in CFU) was measured at day 30.

With `O=C1C(=Cc2ccc(O)c(O)c2O)Oc2cc(O)cc(O)c21`, the CA percent inhibition in the assay with C. albicans was 94%. The molecule further returned an AF percent inhibition in the assay on A. fumigatus of 44%. On the same counts, the results for `CC(C)=CCc1c(O)cc2c(c1O)C(=O)C(=Cc1cc(C(C)(C)C)c(O)c(C(C)(C)C)c1)O2` are 47% and 48%. For `CC(C)=CCc1c(O)cc2c(c1O)C(=O)C(=Cc1ccc(F)cc1F)O2`, in that order: 0% and 40%. For `CCOc1ccc(C=C2Oc3cc(O)c(CC=C(C)C)c(O)c3C2=O)cc1OC`, in that order: 25% and 49%. With `CCOc1ccccc1C=C1Oc2cc(O)c(CC=C(C)C)c(O)c2C1=O`, in the assay with C. albicans, the CA percent inhibition amounted to 25%. The molecule also gave an AF percent inhibition with A. fumigatus of 51%. On the same counts, the results for `COc1ccccc1C=C1Oc2cc(O)c(CC=C(C)C)c(O)c2C1=O` are 15% and 39%. For `CC(C)(C)c1cc(C=C2Oc3cc(O)cc(O)c3C2=O)cc(C(C)(C)C)c1O`, in that order: 17% and 35%. For `O=C1C(=Cc2ccc(F)cc2F)Oc2cc(O)cc(O)c21`, in that order: 0% and 43%. Take `CC(C)=CCc1c(O)cc2c(c1O)C(=O)C(=Cc1c(C)cccc1C)O2`: in the assay on C. albicans, the CA percent inhibition worked out at 7%. The same molecule gave an AF percent inhibition in the assay on A. fumigatus of 0%. On the same counts, the results for `CC(C)=CCc1c(O)cc2c(c1O)C(=O)C(=Cc1ccccc1C)O2` are 11% and 0%. Consider `CC(C)=CCc1c(O)cc2c(c1O)C(=O)C(=Cc1ccc(C)cc1)O2`, for which, in the assay with C. albicans, the CA percent inhibition entry is reported as “CA 18% AF 18% @12.5 μg/ml”. Further, the AF percent inhibition result in the assay on A. fumigatus is recorded as “CA 18% AF 18% @12.5 μg/ml”.

With `CCc1ccc(C=C2Oc3cc(O)c(CC=C(C)C)c(O)c3C2=O)cc1`, the CA percent inhibition in the assay with C. albicans is given as 31%. Further, in the assay with A. fumigatus, the AF percent inhibition is reported as 41%. For `CC(C)=CCc1c(O)cc2c(c1O)C(=O)C(=Cc1c(C)cc(C)cc1C)O2`, in that order: 51% and 53%. For `CC(C)=CCc1c(O)cc2c(c1O)C(=O)C(=Cc1cc(C)cc(C)c1)O2`, in that order: “CA 26% AF” and “#13% @12.5 μg/ml”.

As for `Cc1cc(C)c(C=C2Oc3cc(O)cc(O)c3C2=O)c(C)c1`, the CA percent inhibition with C. albicans was 6%. The AF percent inhibition in the assay with A. fumigatus is 48%. Take `Cc1cc(C)cc(C=C2Oc3cc(O)cc(O)c3C2=O)c1`: in the assay on C. albicans, the CA percent inhibition result was “CA 4% AF”. In addition, the AF percent inhibition entry with A. fumigatus was “#17% @12.5 μg/ml”.

`COc1ccc(/C=C2\Oc3cc(O)c(C/C=C/c4ccccc4)c(O)c3C2=O)cc1`: in assay [1], the inhibition at 10 µg/mL was found to be 83%. Same read-out and setting: for `O=C1/C(=C/c2cc([N+](=O)[O-])ccc2O)Oc2cc(O)c(Cc3ccccc3)c(O)c21` the value was 100%; for `O=C1/C(=C/c2c(Br)cc(Br)c(O)c2Br)Oc2cc(O)c(Cc3ccccc3)c(O)c21`, 100%; for `O=C1/C(=C/c2cc(Cl)cc(Cl)c2O)Oc2cc(O)c(Cc3ccccc3)c(O)c21`, 100%. Consider `CCCCCOc1ccc(/C=C2\Oc3cc(O)cc(O)c3C2=O)cc1`, for which, in [1], the inhibition at 10 µg/mL was 98.6%. Same read-out and setting: under `C=CCc1c(O)cc2c(c1O)C(=O)/C(=C/c1ccc(-c3ccccc3C(F)(F)F)o1)O2` stands 76.5%.

Turning to `Nc1nc(=O)[nH]cc1F` [5-flucytosine], the “inhibition by standard control” value in assay [2] (2.0 μg ml) is “total inhibition”. In addition, the “C. albicans minimum inhibitory concentration (MIC) compared with reported ranges” value in assay [3] is listed as “within reported ranges”. In the case of `C[C@@H]1[C@H](O)[C@@H](C)/C=C/C=C/C=C/C=C/C=C/C=C/C=C/[C@H](O[C@@H]2O[C@H](C)[C@@H](O)[C@H](N)[C@@H]2O)C[C@@H]2O[C@](O)(C[C@@H](O)C[C@@H](O)[C@H](O)CC[C@@H](O)C[C@@H](O)CC(=O)O[C@H]1C)C[C@H](O)[C@H]2C(=O)O` [Amphotericin B], the “inhibition by standard control” value in assay [2] (2.5 μg/ml) is on record as “total inhibition”. Moreover, the “C. albicans minimum inhibitory concentration (MIC) compared with reported ranges” value in [3] is recorded as “within reported ranges”. On to `CC(C)=CCc1c(O)cc2c(c1O)C(=O)/C(=C\c1cc(O)c(O)cc1-c1c(O)cc3c(c1O)C(=O)/C(=C\c1ccc(O)c(O)c1)O3)O2` [Formula (VI)], for which the MIC (as a rule, the smallest concentration in the dilution series that meets the test's criterion for growth inhibition) came out at 25 µg/mL in assay [3] (Candida albicans, ATCC90028, C. albicans, XTT, 22 hours at 35° C., read-out: antifungal MIC); 1.74 µg/mL in assay [4]; 7.48 µg/mL in assay [5]. Consider `C[C@@H]([C@H](N)C(=O)N[C@H](C(=O)O)[C@H]1O[C@@H](n2ccc(=O)[nH]c2=O)[C@H](O)[C@@H]1O)[C@H](O)c1ccc(O)cn1` [Nikkomycin Z, reference compound], for which, in [6], the “CS II remaining” value is recorded as 75%. The “C. albicans minimum inhibitory concentration (MIC) compared with reported ranges” value in assay [3] is recorded as “within reported ranges”. As for `CC(C)=CCc1c(O)cc2c(c1O)C(=O)C(=Cc1ccc(O)c(O)c1)O2` [drawing 36+drawing 32], in the assay on C. albicans, the CA percent inhibition is 92%. The AF percent inhibition in the assay on A. fumigatus is 0%. In the case of `OC(Cn1cncn1)(Cn1cncn1)c1ccc(F)cc1F` [fluconazole, reference compound], in assay [7], the “percent survival after 20 days” value was 0%. The “percent survival after 30 days” value in [8] is listed as “about 30%”. In addition, the “C. albicans minimum inhibitory concentration (MIC) compared with reported ranges” value in assay [3] was “within reported ranges”. As for `NC(=O)OC[C@H](O)[C@@H](O)[C@H](N)C(=O)N[C@H](C(=O)O)[C@H]1O[C@@H](n2cc(C(=O)O)c(=O)[nH]c2=O)[C@H](O)[C@@H]1O` [polyoxin D], the “C. albicans minimum inhibitory concentration (MIC) compared with reported ranges” value in assay [3] is “within reported ranges”.
